# Measurements as given in PMC5049785, “Characterization of Novel Antimalarial Compound ACT-451840: Preclinical Assessment of Activity and Dose–Efficacy Modeling” (PLoS Medicine, 2016).
# Legend:
# [1] = test system: P. falciparum K1 (Thailand); experiment: [3H]-hypoxanthine incorporation assay, K1; type: cell-based, Plasmodium falciparum; details: read-out: 50% inhibitory concentration (IC50); K1, resistance CQ, SUL, PYR, CYC; mean ± SD
# [2] = test system: P. falciparum W2 (Vietnam); experiment: [3H]-hypoxanthine incorporation assay, W2; type: cell-based, Plasmodium falciparum; details: read-out: 50% inhibitory concentration (IC50); W2, resistance CQ, SUL, PYR, CYC; mean ± SD
# [3] = test system: Cam3.II^C580Y and Cam3.II^rev 0–3 h postinvasion rings; experiment: Ring-stage survival assay (RSA0-3h); type: cell-based, P. falciparum; details: 6-h pulse, 35–700 nM, survival assessed 66 h later
# Description: Ring-stage survival assays (RSA0-3h) were carried out at Columbia University Medical Center (New York, United States) as previously described. Parasite cultures were synchronized using 5% sorbitol (Sigma-Aldrich), and schizonts were incubated in RPMI-1640 containing 15 units/ml sodium heparin for 15 min at 37°C to disrupt agglutinated erythrocytes. These schizonts were concentrated over a gradient of 75% Percoll (Sigma-Aldrich), washed once in RPMI-1640, and incubated for 3 h with fresh erythrocytes to allow time for merozoite invasion. Cultures were then subjected again to sorbitol treatment to eliminate remaining schizonts. The 0–3 h postinvasion rings were adjusted to 1% parasitemia and 2% hematocrit in 1 mL volumes (in 48-well plates) and exposed to a range of ACT-451840 drug concentration (700–35 nM) or 0.1% DMSO for 6 h. Duplicate wells were established for each parasite line ± drug concentration. One-mL cultures were then transferred to 15-mL conical tubes, centrifuged at 800xg for 5 min to pellet the cells, and the supernatants carefully removed. As a washing step to remove drug, 10 mL culture medium were added to each tube, and the cells were resuspended, centrifuged, and the medium was aspirated. […] Stained parasites were detected using a BD Accuri 6 Flow Cytometer and analyzed using FlowJo Software. IC50 values were determined by nonlinear regression using GraphPad Prism 6.0. […]
# P. berghei [4] = experiment: In vitro (ex vivo) activity against P. berghei, [3H]-hypoxanthine incorporation; type: cell-based, Plasmodium berghei; details: 16 h exposure + 8 h incorporation
# Description: In vitro (ex vivo) activity against the mouse malaria parasite P. berghei was measured at the Swiss TPH as described elsewhere, with the following modifications: heparinised blood of P. berghei infected and uninfected control female NMRI mice (final hematocrit of 2.5%) was used and exposed to compounds for 16 h followed by 8 h of [^3H]-hypoxanthine incorporation.
# [5] = Single compartment PK model with saturable absorption (predicted blood PK); design: species or system mice; details: for Time over threshold (h), predicted: threshold 1,000 ng/mL
# Description: In order to analyze the PK/PD relationship, drug exposure was predicted for all tested doses in P. berghei mouse model using a single compartment model with saturable absorption based on the concentration–time profile observed after 10, 100, and 300 mg/kg single-dose regimen in healthy mice.
# P. berghei [6] = details: ± coefficient of variation
# Description: A single compartment PK model with saturable absorption was obtained using naïve pooling to fit simultaneously the observed blood concentration time data from the PK studies done at a dose of 10, 100, and 300 mg/kg, as described above. Using this model, blood concentration time profiles were predicted for all dosing regimens used in the mouse antimalarial efficacy studies. Cmax, AUC, and time above a threshold concentration were subsequently calculated using non-compartmental analysis. PD modeling was done using an Emax model using Cmax, AUC, or time above a threshold concentration versus survival or antimalarial activity. All modeling and PK analyses were done using Phoenix Winonlin 6.3 (Cetara, Princeton, US).
# [7] = Reverse mutation test in vitro
# [8] = Chromosome aberration study in vitro
# [9] = mouse PK model parameter estimate
# [10] = single-dose regimen, oral 10 mg/kg
# [11] = single-dose regimen, oral 15 mg/kg
# [12] = single-dose regimen, oral 20 mg/kg
# [13] = single-dose regimen, oral 25 mg/kg
# [14] = single-dose regimen, oral 30 mg/kg
# [15] = single-dose regimen, oral 60 mg/kg
# [16] = single-dose regimen, oral 80 mg/kg
# [17] = single-dose regimen, oral 100 mg/kg
# [18] = single-dose regimen, oral 300 mg/kg
# [19] = triple-dose regimen, oral 3 mg/kg once per day
# [20] = triple-dose regimen, oral 10 mg/kg once per day
# [21] = triple-dose regimen, oral 30 mg/kg once per day
# [22] = triple-dose regimen, oral 50 mg/kg once per day
# [23] = triple-dose regimen, oral 100 mg/kg once per day
# [24] = triple-dose regimen, oral 300 mg/kg once per day
# [25] = triple-dose regimen, oral 2 x 15 mg/kg (twice per day)
# [26] = triple-dose regimen, oral 2 x 30 mg/kg (twice per day)
structure (smiles),measurement,setting,value
CC(=O)N1CCN(c2ccc(CN(C(=O)/C=C/c3ccc(C(C)(C)C)cc3)[C@@H](Cc3ccccc3)C(=O)N3CCN(Cc4ccc(C#N)cc4)CC3)cc2)CC1 [ACT-451840],IC50,[1],0.3 nM
same,IC50,[2],0.2 ± 0.1 nM
same,"ring-stage survival rates, wild-type K13 allele versus C580Y mutation",[3],No difference in survival rates
same,IC50,P. berghei [4],13.5 nM
same,total AUC giving an ED90,"[5]; P. berghei model, triple-dose regimen of 13 mg/kg","16,300 ng*h/mL"
same,Clearance/bioavailability,[5]; [9],2.4 L/h
same,Concentration at half the maximal absorption,[5]; [9],64000 ng/mL
same,Max Absorption,[5]; [9],21 µg/h/kg
same,Volume of distribution/bioavailability,[5]; [9],4.3 L/kg
same,"Cmax (ng/mL), predicted",[5]; [10],617 ng/mL
same,"Tmax (h), predicted",[5]; [10],3 h
same,"Total AUC over the treatment period (ng/mL*h), predicted",[5]; [10],4170 ng·h/mL
same,"Time over threshold (h), predicted",[5]; [10],0 h
same,"Cmax (ng/mL), predicted",[5]; [11],901 ng/mL
same,"Tmax (h), predicted",[5]; [11],3 h
same,"Total AUC over the treatment period (ng/mL*h), predicted",[5]; [11],6260 ng·h/mL
same,"Time over threshold (h), predicted",[5]; [11],0 h
same,"Cmax (ng/mL), predicted",[5]; [12],1170 ng/mL
same,"Tmax (h), predicted",[5]; [12],3 h
same,"Total AUC over the treatment period (ng/mL*h), predicted",[5]; [12],8350 ng·h/mL
same,"Time over threshold (h), predicted",[5]; [12],0 h
same,"Cmax (ng/mL), predicted",[5]; [13],1420 ng/mL
same,"Tmax (h), predicted",[5]; [13],3 h
same,"Total AUC over the treatment period (ng/mL*h), predicted",[5]; [13],10400 ng·h/mL
same,"Time over threshold (h), predicted",[5]; [13],0 h
same,"Cmax (ng/mL), predicted",[5]; [14],1670 ng/mL
same,"Tmax (h), predicted",[5]; [14],3 h
same,"Total AUC over the treatment period (ng/mL*h), predicted",[5]; [14],12500 ng·h/mL
same,"Time over threshold (h), predicted",[5]; [14],0 h
same,"Cmax (ng/mL), predicted",[5]; [15],2900 ng/mL
same,"Tmax (h), predicted",[5]; [15],4 h
same,"Total AUC over the treatment period (ng/mL*h), predicted",[5]; [15],25100 ng·h/mL
same,"Time over threshold (h), predicted",[5]; [15],7 h
same,"Cmax (ng/mL), predicted",[5]; [16],3540 ng/mL
same,"Tmax (h), predicted",[5]; [16],4 h
same,"Total AUC over the treatment period (ng/mL*h), predicted",[5]; [16],33400 ng·h/mL
same,"Time over threshold (h), predicted",[5]; [16],9 h
same,"Cmax (ng/mL), predicted",[5]; [17],4090 ng/mL
same,"Tmax (h), predicted",[5]; [17],6 h
same,"Total AUC over the treatment period (ng/mL*h), predicted",[5]; [17],41800 ng·h/mL
same,"Time over threshold (h), predicted",[5]; [17],11 h
same,"Cmax (ng/mL), predicted",[5]; [18],6690 ng/mL
same,"Tmax (h), predicted",[5]; [18],6.5 h
same,"Total AUC over the treatment period (ng/mL*h), predicted",[5]; [18],126000 ng·h/mL
same,"Time over threshold (h), predicted",[5]; [18],24 h
same,"Cmax (ng/mL), predicted",[5]; [19],192 ng/mL
same,"Tmax (h), predicted",[5]; [19],27 h
same,"Total AUC over the treatment period (ng/mL*h), predicted",[5]; [19],3750 ng·h/mL
same,"Time over threshold (h), predicted",[5]; [19],0 h
same,"Cmax (ng/mL), predicted",[5]; [20],617 ng/mL
same,"Tmax (h), predicted",[5]; [20],27 h
same,"Total AUC over the treatment period (ng/mL*h), predicted",[5]; [20],12500 ng·h/mL
same,"Time over threshold (h), predicted",[5]; [20],0 h
same,"Cmax (ng/mL), predicted",[5]; [21],"1,670 ng/mL"
same,"Tmax (h), predicted",[5]; [21],51 h
same,"Total AUC over the treatment period (ng/mL*h), predicted",[5]; [21],37600 ng·h/mL
same,"Time over threshold (h), predicted",[5]; [21],0 h
same,"Cmax (ng/mL), predicted",[5]; [22],2530 ng/mL
same,"Tmax (h), predicted",[5]; [22],27 h
same,"Total AUC over the treatment period (ng/mL*h), predicted",[5]; [22],62700 ng·h/mL
same,"Time over threshold (h), predicted",[5]; [22],16 h
same,"Cmax (ng/mL), predicted",[5]; [23],4100 ng/mL
same,"Tmax (h), predicted",[5]; [23],52 h
same,"Total AUC over the treatment period (ng/mL*h), predicted",[5]; [23],125000 ng·h/mL
same,"Time over threshold (h), predicted",[5]; [23],32 h
same,"Cmax (ng/mL), predicted",[5]; [24],6830 ng/mL
same,"Tmax (h), predicted",[5]; [24],54 h
same,"Time over threshold (h), predicted",[5]; [24],72 h
same,"Cmax (ng/mL), predicted",[5]; [25],1060 ng/mL
same,"Tmax (h), predicted",[5]; [25],35 h
same,"Total AUC over the treatment period (ng/mL*h), predicted",[5]; [25],37600 ng·h/mL
same,"Time over threshold (h), predicted",[5]; [25],0 h
same,"Cmax (ng/mL), predicted",[5]; [26],1980 ng/mL
same,"Tmax (h), predicted",[5]; [26],59 h
same,"Total AUC over the treatment period (ng/mL*h), predicted",[5]; [26],75200 ng·h/mL
same,"Time over threshold (h), predicted",[5]; [26],8 h
same,"Antimalarial activity EX50, X = AUC",P. berghei [6]; Emax model,"8,100 (ng*h/mL) ± 35%"
same,"Antimalarial activity EX50, X = Cmax",P. berghei [6]; Emax model,930 (ng/mL) ± 36%
same,"Antimalarial activity EX50, X = time above threshold",P. berghei [6]; Emax model,"0.14 (h) ± 3,000%"
same,"Survival E0, model versus AUC",P. berghei [6]; Emax model,5.1 (day) ± 17%
same,"Survival E0, model versus Cmax",P. berghei [6]; Emax model,4 (day) ± 54%
same,"Survival E0, model versus time above threshold",P. berghei [6]; Emax model,5.9 (day) ± 12%
same,"Survival EX50, X = AUC",P. berghei [6]; Emax model,"170,000 (ng*h/mL) ± 16%"
same,"Survival EX50, X = Cmax",P. berghei [6]; Emax model,"15,000 (ng/mL) ± 170%"
same,"Survival EX50, X = time above threshold",P. berghei [6]; Emax model,150 (h) ± 52%
same,"Antimalarial activity Emax, model versus AUC",P. berghei [6],110 (%) ± 8.3%
same,"Antimalarial activity Emax, model versus Cmax",P. berghei [6],130 (%) ± 11%
same,"Antimalarial activity Emax, model versus time above threshold",P. berghei [6],100 (%) ± 38%
same,"Survival Emax, model versus AUC",P. berghei [6],35 (day) ± 35%
same,"Survival Emax, model versus Cmax",P. berghei [6],62 (day) ± 120%
same,"Survival Emax, model versus time above threshold",P. berghei [6],70 (day) ± 71%
same,"genotoxicity, reverse mutation test",[7],not genotoxic
same,"genotoxicity, chromosome aberration study",[8],not genotoxic
